Data reported in the supplement of paper PMC11451515.

System: P12-Ichikawa
Test: cell viability relative to DMSO control; higher = less cytotoxic
Conditions: 48 h
Summary of the method: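 Leukemia cells (NOMO1 or SEM, 500 cells/well; P12-Ichikawa, 1000 cells/well) were seeded in 5 μl in 1536-well plates after at least four passages of adaptation to each medium. They received library compounds in DMSO by pin dosing, 11 threefold points from 47 μM to 0.79 nM. Luminescence with CellTiter-Glo One was read after 48 h at 37°C. Viability is stated per plate relative to DMSO wells, with cell-free wells as background.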

[1] = HPLM + 10% dialyzed FBS, 0.000781 µM
[2] = HPLM + 10% dialyzed FBS, 0.00234 µM
[3] = HPLM + 10% dialyzed FBS, 0.00702 µM
[4] = HPLM + 10% dialyzed FBS, 0.0211 µM
[5] = HPLM + 10% dialyzed FBS, 0.0632 µM
[6] = HPLM + 10% dialyzed FBS, 0.19 µM
[7] = HPLM + 10% dialyzed FBS, 0.569 µM
[8] = HPLM + 10% dialyzed FBS, 1.71 µM
[9] = HPLM + 10% dialyzed FBS, 5.12 µM
[10] = HPLM + 10% dialyzed FBS, 15.4 µM
[11] = HPLM + 10% dialyzed FBS, 46.1 µM
[12] = RPMI 5 mM glucose + 10% FBS, 0.000781 µM
[13] = RPMI 5 mM glucose + 10% FBS, 0.00234 µM
[14] = RPMI 5 mM glucose + 10% FBS, 0.00702 µM
[15] = RPMI 5 mM glucose + 10% FBS, 0.0211 µM
[16] = RPMI 5 mM glucose + 10% FBS, 0.0632 µM
[17] = RPMI 5 mM glucose + 10% FBS, 0.19 µM
[18] = RPMI 5 mM glucose + 10% FBS, 0.569 µM
[19] = RPMI 5 mM glucose + 10% FBS, 1.71 µM
[20] = RPMI 5 mM glucose + 10% FBS, 5.12 µM
[21] = RPMI 5 mM glucose + 10% FBS, 15.4 µM
[22] = RPMI 5 mM glucose + 10% FBS, 46.1 µM
[23] = RPMI 5 mM glucose + 10% dialyzed FBS, 0.000781 µM
[24] = RPMI 5 mM glucose + 10% dialyzed FBS, 0.00234 µM
[25] = RPMI 5 mM glucose + 10% dialyzed FBS, 0.00702 µM
[26] = RPMI 5 mM glucose + 10% dialyzed FBS, 0.0211 µM
[27] = RPMI 5 mM glucose + 10% dialyzed FBS, 0.0632 µM
[28] = RPMI 5 mM glucose + 10% dialyzed FBS, 0.19 µM
[29] = RPMI 5 mM glucose + 10% dialyzed FBS, 0.569 µM
[30] = RPMI 5 mM glucose + 10% dialyzed FBS, 1.71 µM
[31] = RPMI 5 mM glucose + 10% dialyzed FBS, 5.12 µM
[32] = RPMI 5 mM glucose + 10% dialyzed FBS, 15.4 µM
[33] = RPMI 5 mM glucose + 10% dialyzed FBS, 46.1 µM

| Structure (SMILES) | cell viability [1] [%] | cell viability [2] [%] | cell viability [3] [%] | cell viability [4] [%] | cell viability [5] [%] | cell viability [6] [%] | cell viability [7] [%] | cell viability [8] [%] | cell viability [9] [%] | cell viability [10] [%] | cell viability [11] [%] | cell viability [12] [%] | cell viability [13] [%] | cell viability [14] [%] | cell viability [15] [%] | cell viability [16] [%] | cell viability [17] [%] | cell viability [18] [%] | cell viability [19] [%] | cell viability [20] [%] | cell viability [21] [%] | cell viability [22] [%] | cell viability [23] [%] | cell viability [24] [%] | cell viability [25] [%] | cell viability [26] [%] | cell viability [27] [%] | cell viability [28] [%] | cell viability [29] [%] | cell viability [30] [%] | cell viability [31] [%] | cell viability [32] [%] | cell viability [33] [%] |
| --- | --- | --- | --- | --- | --- | --- | --- | --- | --- | --- | --- | --- | --- | --- | --- | --- | --- | --- | --- | --- | --- | --- | --- | --- | --- | --- | --- | --- | --- | --- | --- | --- | --- |
| CC(C)(C)NC(=O)[C@H]1CC[C@H]2[C@@H]3CC[C@H]4NC(=O)\C=C/[C@]4(C)[C@H]3CC[C@]12C | 101 | 109 | 106 | 107 | 102 | 103 | 111 | 107 | 109 | 27.7 | 12.7 | 83.5 | 104 | 103 | 108 | 109 | 109 | 109 | 115 | 103 | 31.6 | 10.8 | 94.1 | 100 | 102 | 100 | 107 | 112 | 108 | 115 | 113 | 81.4 | 35.6 |
| CC(C)(C)NC(=O)[C@@H]1CN(Cc2cccnc2)CCN1C[C@@H](O)C[C@@H](Cc1ccccc1)C(=O)N[C@H]1c2ccccc2C[C@H]1O.O=S(=O)(O)O | 102 | 114 | 115 | 120 | 122 | 115 | 121 | 114 | 112 | 104 | 72.6 | 92.1 | 103 | 99.2 | 111 | 116 | 116 | 116 | 117 | 109 | 98 | 66.1 | 105 | 117 | 119 | 123 | 123 | 119 | 121 | 126 | 111 | 99.4 | 59.2 |
| Cc1ccc(C(=O)c2cc(O)c(O)c([N+](=O)[O-])c2)cc1 | 93.6 | 93.5 | 95.5 | 103 | 101 | 104 | 104 | 102 | 90.9 | 101 | 105 | 90.2 | 88.2 | 85.9 | 85.8 | 102 | 103 | 95.1 | 94.6 | 84.3 | 102 | 102 | 82.5 | 93.4 | 95 | 91.8 | 89.3 | 93.6 | 99.2 | 91 | 84.7 | 89.5 | 91.4 |
| CC1(C)CC(O)CC(C)(C)N1[O] | 111 | 112 | 119 | 118 | 128 | 121 | 132 | 124 | 120 | 117 | 119 | 110 | 111 | 109 | 110 | 126 | 134 | 125 | 114 | 119 | 119 | 116 | 107 | 122 | 113 | 120 | 125 | 129 | 125 | 134 | 127 | 127 | 126 |
